Data from ChEMBL document CHEMBL5537136 (J Med Chem, 2024).
pIC50: −log10 of the molar value.

How the values were obtained:
[1] = Toxicity in Balb/c mouse bearing mouse CT26 cells assessed as morphological changes in lung at 6.25 to 25 mg/kg, IG measured after 14 days by hematoxylin and eosin staining based assay; format: organism-based; conditions: in vivo, po, 336 h, dose 6.25-25 mg/kg, time 14 day
[2] = target: T1, Poly [ADP-ribose] polymerase tankyrase-2 (Homo sapiens, UniProt Q9H2K2); assay: Inhibition of TNKS2 (unknown origin) measured after 1 hr incubation by microplate reader assay
T1 sequence (Q9H2K2 whole entry): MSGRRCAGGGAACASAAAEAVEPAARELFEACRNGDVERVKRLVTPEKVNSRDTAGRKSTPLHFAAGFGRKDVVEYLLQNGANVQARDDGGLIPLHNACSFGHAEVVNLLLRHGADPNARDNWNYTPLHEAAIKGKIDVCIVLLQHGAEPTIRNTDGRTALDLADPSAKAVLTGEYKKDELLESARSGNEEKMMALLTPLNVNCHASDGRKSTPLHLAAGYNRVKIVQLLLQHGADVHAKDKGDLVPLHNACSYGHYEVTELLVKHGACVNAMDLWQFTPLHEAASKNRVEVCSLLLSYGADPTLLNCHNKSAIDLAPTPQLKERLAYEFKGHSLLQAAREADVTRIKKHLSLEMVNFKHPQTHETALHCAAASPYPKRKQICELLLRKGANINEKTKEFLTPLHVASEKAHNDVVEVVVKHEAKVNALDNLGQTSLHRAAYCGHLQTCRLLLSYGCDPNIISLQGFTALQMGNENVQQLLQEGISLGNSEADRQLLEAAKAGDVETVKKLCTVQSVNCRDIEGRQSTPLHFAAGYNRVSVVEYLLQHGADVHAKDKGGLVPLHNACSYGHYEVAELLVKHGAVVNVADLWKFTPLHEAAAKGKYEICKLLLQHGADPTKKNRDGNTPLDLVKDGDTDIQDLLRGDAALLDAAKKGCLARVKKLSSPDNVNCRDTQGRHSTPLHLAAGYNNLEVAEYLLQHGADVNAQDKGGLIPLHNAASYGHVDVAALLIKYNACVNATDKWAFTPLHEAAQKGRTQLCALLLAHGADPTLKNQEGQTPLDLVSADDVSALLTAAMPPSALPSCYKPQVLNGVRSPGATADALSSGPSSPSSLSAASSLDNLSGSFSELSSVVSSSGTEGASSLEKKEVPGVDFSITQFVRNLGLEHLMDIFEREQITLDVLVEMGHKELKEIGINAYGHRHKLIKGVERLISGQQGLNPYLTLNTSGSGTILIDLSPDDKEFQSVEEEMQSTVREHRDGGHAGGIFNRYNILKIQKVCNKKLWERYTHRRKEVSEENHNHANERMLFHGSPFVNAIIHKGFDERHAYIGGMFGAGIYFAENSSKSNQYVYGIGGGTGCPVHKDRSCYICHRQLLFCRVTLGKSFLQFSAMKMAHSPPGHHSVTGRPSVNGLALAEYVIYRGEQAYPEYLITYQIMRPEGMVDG

[3] = AUC (0 to infinity) in ICR mouse at 1 mg/kg, iv measured upto 24 hrs by LC-MS/MS analysis; format: ADME, organism-based; conditions: in vivo
[4] = Permeability across basolateral to apical side in human Caco-2 cells; format: ADME, cell-based
Cytochrome P450 2C9 = Cytochrome P450 2C9 (Homo sapiens, UniProt P11712); assay: Inhibition of CYP2C9 (unknown origin); format: ADME
[5] = target: T2, Poly [ADP-ribose] polymerase tankyrase-1 (Homo sapiens, UniProt O95271); assay: Inhibition of TNKS1 (unknown origin) measured after 1 hr incubation by microplate reader assay
T2 sequence (O95271 whole entry): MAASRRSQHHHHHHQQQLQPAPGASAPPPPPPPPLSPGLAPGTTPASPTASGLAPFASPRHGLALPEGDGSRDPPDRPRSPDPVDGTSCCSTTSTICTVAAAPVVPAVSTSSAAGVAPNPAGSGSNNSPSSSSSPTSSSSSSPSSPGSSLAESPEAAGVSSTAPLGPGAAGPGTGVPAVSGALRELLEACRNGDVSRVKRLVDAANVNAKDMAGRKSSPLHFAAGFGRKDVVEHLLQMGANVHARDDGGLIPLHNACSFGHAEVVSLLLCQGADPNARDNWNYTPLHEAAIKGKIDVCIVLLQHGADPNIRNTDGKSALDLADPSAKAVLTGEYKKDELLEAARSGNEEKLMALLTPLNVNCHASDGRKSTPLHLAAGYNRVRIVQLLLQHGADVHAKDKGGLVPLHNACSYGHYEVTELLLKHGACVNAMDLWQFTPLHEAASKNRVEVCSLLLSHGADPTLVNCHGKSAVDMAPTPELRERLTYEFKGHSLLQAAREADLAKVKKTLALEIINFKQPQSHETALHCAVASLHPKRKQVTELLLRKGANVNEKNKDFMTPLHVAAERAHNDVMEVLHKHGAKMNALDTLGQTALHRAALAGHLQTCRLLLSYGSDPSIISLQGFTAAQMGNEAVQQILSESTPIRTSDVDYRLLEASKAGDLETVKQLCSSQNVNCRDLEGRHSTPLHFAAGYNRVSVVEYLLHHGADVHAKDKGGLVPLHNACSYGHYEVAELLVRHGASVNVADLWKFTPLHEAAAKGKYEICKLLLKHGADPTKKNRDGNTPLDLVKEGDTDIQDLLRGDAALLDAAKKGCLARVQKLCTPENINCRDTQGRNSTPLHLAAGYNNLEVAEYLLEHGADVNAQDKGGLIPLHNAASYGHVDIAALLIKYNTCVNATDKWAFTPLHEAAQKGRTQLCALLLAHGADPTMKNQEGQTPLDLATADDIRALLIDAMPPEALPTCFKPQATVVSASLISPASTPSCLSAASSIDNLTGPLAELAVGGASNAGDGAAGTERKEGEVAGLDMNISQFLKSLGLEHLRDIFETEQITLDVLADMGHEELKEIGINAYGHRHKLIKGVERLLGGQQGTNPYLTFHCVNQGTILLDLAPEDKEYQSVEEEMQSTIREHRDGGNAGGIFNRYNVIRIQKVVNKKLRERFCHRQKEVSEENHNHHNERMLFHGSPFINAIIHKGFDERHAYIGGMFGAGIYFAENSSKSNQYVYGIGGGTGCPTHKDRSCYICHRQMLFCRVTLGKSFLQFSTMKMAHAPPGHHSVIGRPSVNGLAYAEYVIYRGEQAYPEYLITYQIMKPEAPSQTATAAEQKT

[6] = Acute toxicity in ICR mouse assessed as change in body weight at 500 mg/kg, po measured after 7 days; format: organism-based; conditions: in vivo, 168 h, time 7 day
CT26 = assay: cells; conditions: Mus musculus, CT26, 144 h

Sequence of Cytochrome P450 2C9 (P11712 whole entry): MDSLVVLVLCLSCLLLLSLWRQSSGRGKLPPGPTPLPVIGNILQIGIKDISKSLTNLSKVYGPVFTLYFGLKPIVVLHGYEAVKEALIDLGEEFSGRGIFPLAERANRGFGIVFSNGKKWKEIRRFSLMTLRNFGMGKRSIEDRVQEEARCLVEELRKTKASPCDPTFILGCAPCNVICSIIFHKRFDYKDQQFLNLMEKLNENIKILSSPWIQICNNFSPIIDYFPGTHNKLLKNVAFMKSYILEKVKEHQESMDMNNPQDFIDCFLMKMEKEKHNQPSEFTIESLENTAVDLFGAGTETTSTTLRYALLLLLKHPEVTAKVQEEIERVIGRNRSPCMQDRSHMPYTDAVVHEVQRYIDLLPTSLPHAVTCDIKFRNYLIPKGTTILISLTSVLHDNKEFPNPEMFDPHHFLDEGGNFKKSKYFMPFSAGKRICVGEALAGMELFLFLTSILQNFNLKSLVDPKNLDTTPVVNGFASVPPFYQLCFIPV

C[C@@H](C(=O)N1CCN(c2ncc(C(F)(F)F)cn2)CC1)n1cc2cccc(C(N)=O)c2n1
Activity [1]: Non-Toxic | pIC50 [2]: 6.16 | AUC(0-inf) [3]: 1800 ng·h/mL | Papp B→A [4]: 20.7 ×10⁻⁶ cm/s | pIC50 (Cytochrome P450 2C9): < 4.52 | pIC50 [5]: 6.05 | Activity [6]: Non-Toxic | pIC50 (CT26): 4.79
